Test results published in ChEMBL document CHEMBL1201862, “PubChem BioAssay data set” (2004).
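Method: 48-hour compound exposure of cells in 96-well plates, five concentrations, linear interpolation of endpoints. GI50 is the concentration that inhibits growth by half.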 Activity calls are given as the source filed them. Cut-off read from the data, not from the text of the source: active = GI50 up to about 1.1 µM and inactive = higher.

Legend:
Test in all cases: inhibition of tumour cell growth, NCI panel, 48 h
[1] = system: LOX IMVI
[2] = system: HCT-116
[3] = system: U-251
[4] = system: SF-268
[5] = system: 786-0
[6] = system: NCI/ADR-RES
[7] = system: Hs-578T
[8] = system: SNB-19
[9] = system: KM12
[10] = system: RXF 393
[11] = system: HL-60
[12] = system: NCI-H522
[13] = system: PC-3
[14] = system: SK-MEL-5
[15] = system: MDA-MB-231
[16] = system: NCI-H460
[17] = system: SK-OV-3
[18] = system: OVCAR-8
[19] = system: UACC-257
[20] = system: OVCAR-4

| SMILES | GI50 [1] | GI50 [2] | GI50 [3] | GI50 [4] | GI50 [5] | GI50 [6] | GI50 [7] | GI50 [8] | GI50 [9] | GI50 [10] | GI50 [11] | GI50 [12] | GI50 [13] | GI50 [14] | GI50 [15] | GI50 [16] | GI50 [17] | GI50 [18] | GI50 [19] | GI50 [20] |
| --- | --- | --- | --- | --- | --- | --- | --- | --- | --- | --- | --- | --- | --- | --- | --- | --- | --- | --- | --- | --- |
| COC(=O)c1cc(CC2Cc3cc4c(cc3C2)CCC4)cc2c1CCC2 | 56.5 µM (inactive) | 58.7 µM (inactive) | > 100 µM (inactive) | > 100 µM (inactive) | > 100 µM (inactive) | > 100 µM (inactive) | > 100 µM (inactive) | > 100 µM (inactive) | 61.5 µM (inactive) | 62.2 µM (inactive) | 56.6 µM (inactive) | 57.4 µM (inactive) | 81.8 µM (inactive) | 33.9 µM (inactive) | > 100 µM (inactive) | > 100 µM (inactive) | > 100 µM (inactive) | > 100 µM (inactive) | 37.2 µM (inactive) | > 100 µM (inactive) |
| CC(C)(C)c1cc(C(C)(C)C)c2sc(=O)oc2c1O | 14 µM (inactive) | 12.9 µM (inactive) | 14.2 µM (inactive) | 13.6 µM (inactive) | 16.4 µM (inactive) | 16.3 µM (inactive) | 16.4 µM (inactive) | 17.3 µM (inactive) | 14.1 µM (inactive) | 11.9 µM (inactive) | 5.6 µM (inactive) | 13.7 µM (inactive) | 14.7 µM (inactive) | 14.4 µM (inactive) | 18.4 µM (inactive) | 5.61 µM (inactive) | 19.5 µM (inactive) | 16.3 µM (inactive) | 5.71 µM (inactive) | 13.6 µM (inactive) |
| O=C(O)c1ccc2[nH]c(=O)oc2c1 | > 100 µM (inactive) | > 100 µM (inactive) | > 100 µM (inactive) | > 100 µM (inactive) | > 100 µM (inactive) | > 100 µM (inactive) | > 100 µM (inactive) | > 100 µM (inactive) | > 100 µM (inactive) | > 100 µM (inactive) | > 100 µM (inactive) | – | > 100 µM (inactive) | – | > 100 µM (inactive) | > 100 µM (inactive) | > 100 µM (inactive) | > 100 µM (inactive) | > 100 µM (inactive) | – |
| CCN(CC)c1ccc(/C=C2\CCc3ccc([N+](=O)[O-])cc3C2=O)cc1 | 0.409 µM (active) | 0.199 µM (active) | 1.7 µM (inactive) | 14.4 µM (inactive) | 2.84 µM (inactive) | 1.03 µM (active) | 1.26 µM (inactive) | 1.42 µM (inactive) | 0.582 µM (active) | 2.99 µM (inactive) | 0.249 µM (active) | 0.912 µM (active) | 1.97 µM (inactive) | 1.71 µM (inactive) | 2.61 µM (inactive) | 3.84 µM (inactive) | 4.54 µM (inactive) | 3.73 µM (inactive) | – | > 100 µM (inactive) |
| C=C1C(=O)O[C@@H]2C=C(C)C3=CC(=O)[C@](C)(C[C@H](OC(=O)/C(C)=C\C)[C@@H]12)O3 | 0.299 µM (active) | 0.282 µM (active) | 1.85 µM (inactive) | 3.12 µM (inactive) | 0.374 µM (active) | 0.67 µM (active) | 2.85 µM (inactive) | – | 1.3 µM (inactive) | 0.29 µM (active) | 0.157 µM (active) | 0.144 µM (active) | 1.51 µM (inactive) | 0.542 µM (active) | 0.759 µM (active) | 2.18 µM (inactive) | 4.05 µM (inactive) | 0.51 µM (active) | 2.14 µM (inactive) | 4.88 µM (inactive) |
| Oc1c(C2=N[C@H]3CCCC[C@@H]3N2)ccc2ccccc12 | > 100 µM (inactive) | > 100 µM (inactive) | > 100 µM (inactive) | > 100 µM (inactive) | > 100 µM (inactive) | > 47.6 µM (inactive) | > 100 µM (inactive) | > 40.8 µM (inactive) | > 100 µM (inactive) | – | > 100 µM (inactive) | > 100 µM (inactive) | > 100 µM (inactive) | > 100 µM (inactive) | > 100 µM (inactive) | > 100 µM (inactive) | > 100 µM (inactive) | > 100 µM (inactive) | > 100 µM (inactive) | > 100 µM (inactive) |
| NC(C(F)(F)F)(C(F)(F)F)P(=O)(Cc1ccccc1)Cc1ccccc1 | > 100 µM (inactive) | > 100 µM (inactive) | > 100 µM (inactive) | 73.8 µM (inactive) | 66.1 µM (inactive) | > 100 µM (inactive) | 58.1 µM (inactive) | > 100 µM (inactive) | > 100 µM (inactive) | 28.9 µM (inactive) | > 100 µM (inactive) | – | > 100 µM (inactive) | > 100 µM (inactive) | > 100 µM (inactive) | > 100 µM (inactive) | > 100 µM (inactive) | > 100 µM (inactive) | > 100 µM (inactive) | > 100 µM (inactive) |
| C=CCC(CNC(=O)OCc1ccccc1)O[Si](C)(C)C(C)(C)C (stereo not given) | 23.4 µM (inactive) | 20.8 µM (inactive) | 25.6 µM (inactive) | 45.3 µM (inactive) | 29.4 µM (inactive) | 36.9 µM (inactive) | 45.2 µM (inactive) | 40.3 µM (inactive) | 34 µM (inactive) | 17.3 µM (inactive) | 20.1 µM (inactive) | 24.9 µM (inactive) | 30.3 µM (inactive) | 16.6 µM (inactive) | 17.3 µM (inactive) | 25.6 µM (inactive) | 61.5 µM (inactive) | 45.3 µM (inactive) | 25.4 µM (inactive) | 46.7 µM (inactive) |
| Cn1cnc(N2CCCC2)c(C#N)c1=O | > 100 µM (inactive) | > 100 µM (inactive) | > 100 µM (inactive) | > 100 µM (inactive) | > 100 µM (inactive) | > 100 µM (inactive) | > 100 µM (inactive) | > 100 µM (inactive) | > 100 µM (inactive) | > 100 µM (inactive) | > 100 µM (inactive) | > 100 µM (inactive) | > 100 µM (inactive) | > 100 µM (inactive) | > 100 µM (inactive) | > 100 µM (inactive) | – | > 100 µM (inactive) | > 100 µM (inactive) | > 100 µM (inactive) |
| COc1ccc(C2SCC(=O)N2NC(=O)C(C)Oc2ccccc2Cl)cc1 (stereo not given) | 24.5 µM (inactive) | 40.3 µM (inactive) | 38 µM (inactive) | > 100 µM (inactive) | 98.6 µM (inactive) | 63.2 µM (inactive) | > 100 µM (inactive) | 69.2 µM (inactive) | 35.9 µM (inactive) | 27.7 µM (inactive) | 17.1 µM (inactive) | 51.9 µM (inactive) | 33.7 µM (inactive) | 24.5 µM (inactive) | 26.9 µM (inactive) | 70.1 µM (inactive) | – | 61.1 µM (inactive) | > 100 µM (inactive) | 60.7 µM (inactive) |
| Nc1c(Cl)cc(-c2nc3ccccc3s2)cc1Cl | – | > 100 µM (inactive) | > 100 µM (inactive) | > 100 µM (inactive) | 22.6 µM (inactive) | > 100 µM (inactive) | > 100 µM (inactive) | > 100 µM (inactive) | > 100 µM (inactive) | > 100 µM (inactive) | > 100 µM (inactive) | > 100 µM (inactive) | > 100 µM (inactive) | > 100 µM (inactive) | 69 µM (inactive) | 0.556 µM (active) | > 100 µM (inactive) | > 100 µM (inactive) | > 100 µM (inactive) | – |
| CC1=NN(c2cc(Cl)c(S(=O)(=O)O)cc2Cl)C2(C1)C(Cl)C(=O)N2c1nc2ccccc2s1 (stereo not given) | 29.4 µM (inactive) | > 100 µM (inactive) | > 100 µM (inactive) | > 100 µM (inactive) | > 100 µM (inactive) | > 100 µM (inactive) | > 100 µM (inactive) | > 100 µM (inactive) | 97.9 µM (inactive) | > 100 µM (inactive) | > 100 µM (inactive) | 19.6 µM (inactive) | 27.8 µM (inactive) | > 100 µM (inactive) | 42.6 µM (inactive) | > 100 µM (inactive) | – | 86.9 µM (inactive) | > 100 µM (inactive) | > 100 µM (inactive) |
| O=P1(Oc2ccc(Cl)cc2)OCCS1 (stereo not given) | > 100 µM (inactive) | > 100 µM (inactive) | > 100 µM (inactive) | > 100 µM (inactive) | > 100 µM (inactive) | > 100 µM (inactive) | > 100 µM (inactive) | > 100 µM (inactive) | – | > 100 µM (inactive) | 80.7 µM (inactive) | > 100 µM (inactive) | > 100 µM (inactive) | > 100 µM (inactive) | > 100 µM (inactive) | > 100 µM (inactive) | > 100 µM (inactive) | > 100 µM (inactive) | > 100 µM (inactive) | – |
| CCOC(=O)Cn1c(=O)c2nc(SC)sc2n(-c2ccc(C)cc2)c1=S | > 100 µM (inactive) | > 71.8 µM (inactive) | 24.5 µM (inactive) | 30.1 µM (inactive) | 18.1 µM (inactive) | 50.6 µM (inactive) | 19.2 µM (inactive) | 20.4 µM (inactive) | – | 22.8 µM (inactive) | > 100 µM (inactive) | 79.6 µM (inactive) | 38.1 µM (inactive) | > 100 µM (inactive) | 52.7 µM (inactive) | 48 µM (inactive) | 45.8 µM (inactive) | 36.6 µM (inactive) | > 100 µM (inactive) | 10.2 µM (inactive) |
| Cc1ccsc1/C(S)=N\c1ccc(Cl)c(/C=N/OC(C)(C)C)c1 | 18.6 µM (inactive) | 16.4 µM (inactive) | 24.3 µM (inactive) | > 100 µM (inactive) | 20.9 µM (inactive) | 23.6 µM (inactive) | 29.7 µM (inactive) | > 100 µM (inactive) | 25.1 µM (inactive) | 14.8 µM (inactive) | 24.2 µM (inactive) | 24 µM (inactive) | 34.4 µM (inactive) | 31.5 µM (inactive) | 21.2 µM (inactive) | 20.3 µM (inactive) | > 100 µM (inactive) | 33 µM (inactive) | 17.2 µM (inactive) | > 100 µM (inactive) |
